In patent US10023590B2, “Substituted pyridine compounds having herbicidal activity” (BASF SE, priority 2014, dated 2018):

What was measured:
Format in all cases: in vivo
Amaranthus retroflexus = assay: Greenhouse post-emergence herbicidal activity, AMARE; conditions: AMARE; for pest or weed control at 2000 g/ha: 2 kg/ha, scale 0 to 100, read-out: Herbicidal activity
Method in brief: (§1)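 Injury was rated visually on a 0–100 scale, where 100 meant complete destruction of at least the aerial parts and 0 normal growth, over a 2 to 4 week test period. Treatment was applied post-emergence at plant heights of 3 to 15 cm.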

Kochia scoparia = assay: Greenhouse post-emergence herbicidal activity, KCHSC; conditions: scale 0 to 100
From the text: (§2) The culture containers used were plastic flowerpots containing loamy sand with approximately 3.0% of humus as the substrate. The seeds of the test plants were sown separately for each species.
(§3) For the post-emergence treatment, the test plants were first grown to a height of 3 to 15 cm, depending on the plant habit, and only then treated with the active ingredients which had been suspended or emulsified in water. For this purpose, the test plants were either sown directly and grown in the same containers, or they were first grown separately as seedlings and transplanted into the test containers a few days prior to treatment.
(§4) Depending on the species, the plants were kept at 10-25° C. or 20-35° C., respectively.
(§5) The test period extended over 2 to 4 weeks. During this time, the plants were tended, and their response to the individual treatments was evaluated.
(§6) Evaluation was carried out using a scale from 0 to 100. 100 means no emergence of the plants, or complete destruction of at least the aerial moieties, and 0 means no damage, or normal course of growth. A good herbicidal activity is given at values of at least 70 and a very good herbicidal activity is given at values of at least 85.

Setaria faberi = assay: Greenhouse post-emergence herbicidal activity, SETFA; conditions: 2 kg/ha, scale 0 to 100
From the text: as §2, §3, §4, §5, §6

Oryza sativa = assay: Greenhouse post-emergence herbicidal activity on crop ORYSA (rice)
Method in brief: as §1

Zea mays = assay: Greenhouse post-emergence herbicidal activity on crop ZEAMX (corn, maize); parameters: key: 0 = no damage/normal growth, 100 = no emergence or complete destruction
Method in brief: as §1

Digitaria sanguinalis = assay: Greenhouse post-emergence herbicidal activity, DIGSA; conditions: scale 0 to 100
From the text: as §2, §3, §4, §5, §6

Cirsium arvense = assay: Greenhouse post-emergence herbicidal activity, CIRAR; conditions: CIRAR; for pest or weed control at 125 g/ha: 0.125 kg/ha
From the text: as §2, §3, §4, §5, §6

Abutilon theophrasti = assay: Greenhouse post-emergence herbicidal activity, ABUTH; conditions: ABUTH
From the text: as §2, §3, §4, §5, §6

Stellaria media = assay: Greenhouse post-emergence herbicidal activity, STEME; conditions: scale 0 to 100
From the text: as §2, §3, §4, §5, §6

Chenopodium album = assay: Greenhouse post-emergence herbicidal activity, CHEAL; conditions: scale 0 to 100; for pest or weed control at 31 g/ha: 0.031 kg/ha; for pest or weed control at 63 g/ha: 0.063 kg/ha; for pest or weed control at 125 g/ha: 0.125 kg/ha; for pest or weed control at 250 g/ha: 0.25 kg/ha
Method in brief: as §1

Polygonum persicaria = assay: Greenhouse post-emergence herbicidal activity, POLPE; conditions: 0.063 kg/ha, scale 0 to 100
From the text: as §2, §3, §4, §5, §6

Ambrosia artemisiifolia = assay: Greenhouse post-emergence herbicidal activity, AMBEL; conditions: scale 0 to 100
From the text: as §2, §3, §4, §5, §6

Veronica arvensis = assay: Greenhouse post-emergence herbicidal activity, VERAR; conditions: scale 0 to 100
From the text: as §2, §3, §4, §5, §6

Echinocloa crus-galli = assay: Greenhouse post-emergence herbicidal activity, ECHCG; conditions: Echinochloa crus-galli, ECHCG; for pest or weed control at 2000 g/ha: 2 kg/ha, scale 0 to 100, read-out: Herbicidal activity
Method in brief: as §1

Setaria viridis = assay: Greenhouse post-emergence herbicidal activity, SETVI; conditions: 2 kg/ha, scale 0 to 100
From the text: as §2, §3, §4, §5, §6

Ipomoea hederacea = assay: Greenhouse post-emergence herbicidal activity, IPOHE; conditions: 0.031 kg/ha, scale 0 to 100
From the text: as §2, §3, §4, §5, §6

Erigeron canadensis = assay: Greenhouse post-emergence herbicidal activity, ERICA
From the text: as §2, §3, §4, §5, §6

[1] = ORYSA (rice, crop), 0.031 kg/ha, scale 0 to 100
[2] = ORYSA (rice, crop), 0.063 kg/ha, scale 0 to 100
[3] = ZEAMX (corn, crop), 0.031 kg/ha, scale 0 to 100
[4] = ZEAMX (corn, crop), 0.063 kg/ha, scale 0 to 100
[5] = ZEAMX (corn, crop), 0.125 kg/ha, scale 0 to 100
[6] = ORYSA (rice, crop), 0.125 kg/ha, scale 0 to 100
[7] = ORYSA (rice, crop), 0.25 kg/ha, scale 0 to 100

## CS(=O)(=O)Nc1ccc(Cl)c(C2=C(O)c3ncccc3CS2(=O)=O)c1Cl [I-5, N-[2,4-dichloro-3-(8-hydroxy-6,6-dioxo-5H-thiopyrano[4,3-b]pyridin-7-yl)phenyl]methanesulfonamide]
Amaranthus retroflexus; 0.031 kg/ha, scale 0 to 100
  pest or weed control at 31 g/ha: 75%
Amaranthus retroflexus; 0.063 kg/ha, scale 0 to 100
  pest or weed control at 63 g/ha: 95%
Amaranthus retroflexus; 0.125 kg/ha, scale 0 to 100
  pest or weed control at 125 g/ha: 95%
Amaranthus retroflexus
  pest or weed control at 2000 g/ha: 98%
Kochia scoparia; 0.031 kg/ha
  Herbicidal activity: 90
Kochia scoparia; 0.063 kg/ha
  Herbicidal activity: 95
Setaria faberi
  Herbicidal activity: 100
Oryza sativa; [1]
  Herbicidal activity: 25
Oryza sativa; [2]
  Herbicidal activity: 35
Zea mays; [3]
  Herbicidal activity: 0
Zea mays; [4]
  Herbicidal activity: 0
Zea mays; [5]
  Herbicidal activity: 0
Digitaria sanguinalis; 0.063 kg/ha
  Herbicidal activity: 90
Digitaria sanguinalis; 0.125 kg/ha
  Herbicidal activity: 95
Cirsium arvense; 0.031 kg/ha, scale 0 to 100
  pest or weed control at 31 g/ha: 75%
Cirsium arvense; scale 0 to 100
  pest or weed control at 125 g/ha: 90%

## CN(c1ccc(Cl)c(C2=C(O)c3ncccc3C(C)(C)S2(=O)=O)c1Cl)S(C)(=O)=O [I-7, N-[2,4-dichloro-3-(8-hydroxy-5,5-dimethyl-6,6-dioxo-thiopyrano[4,3-b]pyridin-7-yl)phenyl]-N-methyl-methanesulfonamide]
Amaranthus retroflexus; 0.125 kg/ha, scale 0 to 100
  pest or weed control at 125 g/ha: 90%
Abutilon theophrasti; 0.25 kg/ha, scale 0 to 100
  pest or weed control at 250 g/ha: 100%
Stellaria media; 0.063 kg/ha
  Herbicidal activity: 100
Stellaria media; 0.125 kg/ha
  Herbicidal activity: 100
Stellaria media; 0.25 kg/ha
  Herbicidal activity: 100
Chenopodium album
  pest or weed control at 31 g/ha: 95%
  pest or weed control at 63 g/ha: 85%
  pest or weed control at 125 g/ha: 98%
  pest or weed control at 250 g/ha: 100%
Oryza sativa; [1]
  Herbicidal activity: 0
Oryza sativa; [2]
  Herbicidal activity: 0
Oryza sativa; [6]
  Herbicidal activity: 10
Oryza sativa; [7]
  Herbicidal activity: 15
Polygonum persicaria
  Herbicidal activity: 80
Zea mays; [3]
  Herbicidal activity: 0
Zea mays; [4]
  Herbicidal activity: 0
Zea mays; [5]
  Herbicidal activity: 20

## Cc1c(C2=C(O)c3ncccc3C(C)(C)S2(=O)=O)cccc1N(C)S(C)(=O)=O [I-14, N-[3-(8-hydroxy-5,5-dimethyl-6,6-dioxo-thiopyrano[4,3-b]pyridin-7-yl)-2-methyl-phenyl]-N-methyl-methanesulfonamide]
Ambrosia artemisiifolia; 0.063 kg/ha
  Herbicidal activity: 100
Ambrosia artemisiifolia; 0.125 kg/ha
  Herbicidal activity: 100
Amaranthus retroflexus
  pest or weed control at 2000 g/ha: 100%
Veronica arvensis; 0.031 kg/ha
  Herbicidal activity: 100
Veronica arvensis; 0.063 kg/ha
  Herbicidal activity: 100
Echinocloa crus-galli
  pest or weed control at 2000 g/ha: 98%
Stellaria media; 0.125 kg/ha
  Herbicidal activity: 100
Chenopodium album
  pest or weed control at 31 g/ha: 98%
  pest or weed control at 125 g/ha: 100%
Kochia scoparia; 0.031 kg/ha
  Herbicidal activity: 95
Kochia scoparia; 0.063 kg/ha
  Herbicidal activity: 100
Oryza sativa; [1]
  Herbicidal activity: 0
Oryza sativa; [2]
  Herbicidal activity: 0
Oryza sativa; [6]
  Herbicidal activity: 10
Setaria viridis
  Herbicidal activity: 100
Zea mays; [3]
  Herbicidal activity: 15
Zea mays; [4]
  Herbicidal activity: 20
Zea mays; [5]
  Herbicidal activity: 35

## CN(c1cccc(C2=C(OC(=O)C(C)(C)C)c3ncccc3C(C)(C)S2(=O)=O)c1Cl)S(C)(=O)=O [I-16, [7-[2-chloro-3-[methyl(methylsulfonyl)amino]phenyl]-5,5-dimethyl-6,6-dioxo-thiopyrano[4,3-b]pyridin-8-yl] 2,2-dimethylpropanoate]
Ambrosia artemisiifolia; 0.063 kg/ha
  Herbicidal activity: 100
Ambrosia artemisiifolia; 0.125 kg/ha
  Herbicidal activity: 100
Ambrosia artemisiifolia; 0.25 kg/ha
  Herbicidal activity: 100
Amaranthus retroflexus; 0.031 kg/ha, scale 0 to 100
  pest or weed control at 31 g/ha: 75%
Amaranthus retroflexus; 0.125 kg/ha, scale 0 to 100
  pest or weed control at 125 g/ha: 90%
Veronica arvensis; 0.25 kg/ha
  Herbicidal activity: 100
Chenopodium album
  pest or weed control at 31 g/ha: 95%
  pest or weed control at 63 g/ha: 98%
  pest or weed control at 125 g/ha: 98%
  pest or weed control at 250 g/ha: 100%
Oryza sativa; [1]
  Herbicidal activity: 0
Oryza sativa; [2]
  Herbicidal activity: 0
Oryza sativa; [6]
  Herbicidal activity: 0
Oryza sativa; [7]
  Herbicidal activity: 0
Ipomoea hederacea
  Herbicidal activity: 70
Zea mays; [3]
  Herbicidal activity: 0
Zea mays; [4]
  Herbicidal activity: 0
Zea mays; [5]
  Herbicidal activity: 0
Cirsium arvense; 0.063 kg/ha, scale 0 to 100, read-out: Herbicidal activity
  pest or weed control at 63 g/ha: 85%

## CN(c1c(Cl)ccc(C2=C(O)c3ncccc3C(C)(C)S2(=O)=O)c1Cl)S(=O)(=O)CC1CC1 [I-21, 1-cyclopropyl-N-[2,6-dichloro-3-(8-hydroxy-5,5-dimethyl-6,6-dioxo-thiopyrano[4,3-b]pyridin-7-yl)phenyl]-N-methyl-methanesulfonamide]
Amaranthus retroflexus; 0.031 kg/ha, scale 0 to 100
  pest or weed control at 31 g/ha: 98%
Amaranthus retroflexus; 0.063 kg/ha, scale 0 to 100
  pest or weed control at 63 g/ha: 98%
Amaranthus retroflexus; 0.125 kg/ha, scale 0 to 100
  pest or weed control at 125 g/ha: 100%
Amaranthus retroflexus
  pest or weed control at 2000 g/ha: 100%
Echinocloa crus-galli; 0.031 kg/ha, scale 0 to 100
  pest or weed control at 31 g/ha: 98%
Echinocloa crus-galli
  pest or weed control at 2000 g/ha: 100%
Abutilon theophrasti; 2 kg/ha, scale 0 to 100, read-out: Herbicidal activity
  pest or weed control at 2000 g/ha: 100%
Chenopodium album
  pest or weed control at 31 g/ha: 95%
  pest or weed control at 63 g/ha: 98%
Oryza sativa; [1]
  Herbicidal activity: 0
Oryza sativa; [2]
  Herbicidal activity: 30
Oryza sativa; [6]
  Herbicidal activity: 45
Erigeron canadensis; 0.063 kg/ha, scale 0 to 100
  Herbicidal activity: 100
Erigeron canadensis; 0.125 kg/ha, scale 0 to 100
  Herbicidal activity: 100
Cirsium arvense; scale 0 to 100
  pest or weed control at 125 g/ha: 100%

## CN(c1c(Cl)ccc(C2=C(O)c3ncccc3C(C)(C)S2(=O)=O)c1C(F)(F)F)S(C)(=O)=O [I-32, N-[6-chloro-3-(8-hydroxy-5,5-dimethyl-6,6-dioxo-thiopyrano[4,3-b]pyridin-7-yl)-2-(trifluoromethyl)phenyl]-N-methyl-methanesulfonamide]
Amaranthus retroflexus; application rate 0.031 kg/ha
  pest or weed control at 31 g/ha: 98%
Amaranthus retroflexus; application rate 0.063 kg/ha
  pest or weed control at 63 g/ha: 98%
Amaranthus retroflexus; application rate 0.125 kg/ha
  pest or weed control at 125 g/ha: 98%
Amaranthus retroflexus; application rate 0.25 kg/ha
  pest or weed control at 250 g/ha: 98%
Echinocloa crus-galli; application rate 0.031 kg/ha
  pest or weed control at 31 g/ha: 90%
Echinocloa crus-galli; application rate 0.063 kg/ha
  pest or weed control at 63 g/ha: 98%
Echinocloa crus-galli; application rate 0.125 kg/ha
  pest or weed control at 125 g/ha: 95%
Abutilon theophrasti; application rate 0.031 kg/ha
  pest or weed control at 31 g/ha: 95%
Abutilon theophrasti; application rate 0.063 kg/ha
  pest or weed control at 63 g/ha: 90%
Abutilon theophrasti; application rate 0.125 kg/ha
  pest or weed control at 125 g/ha: 95%
Abutilon theophrasti; application rate 0.25 kg/ha
  pest or weed control at 250 g/ha: 98%
Oryza sativa; crop ORYSA (rice), application rate 0.25 kg/ha
  Herbicidal activity: 30
Zea mays; crop ZEAMX (corn, maize), application rate 0.031 kg/ha
  Herbicidal activity: 5
Zea mays; crop ZEAMX (corn, maize), application rate 0.063 kg/ha
  Herbicidal activity: 5
Zea mays; crop ZEAMX (corn, maize), application rate 0.125 kg/ha
  Herbicidal activity: 15
Erigeron canadensis; application rate 0.25 kg/ha
  Herbicidal activity: 100
